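Interpolation was linear, between the two tested concentrations surrounding the appropriate level; five concentrations were tested over 48 hours in 96-well plates. GI50 is the concentration that inhibits growth by half.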 The source made the active and inactive calls. Cut-off read from the data, not from the text of the source: active = GI50 up to about 1.1 µM and inactive = higher.
What was measured:
Experiment in all cases: inhibition of tumour cell growth, NCI panel, 48 h
[1] = system: KM12
[2] = system: HCC 2998
[3] = system: A498
[4] = system: HOP-92
[5] = system: Malme-3M
[6] = system: LOX IMVI
[7] = system: OVCAR-3
[8] = system: RPMI-8226
[9] = system: MOLT-4
[10] = system: HCT-15
[11] = system: A549
[12] = system: SN12C
[13] = system: CAKI-1
[14] = system: U-251
[15] = system: ACHN
[16] = system: NCI-H522
[17] = system: M14
[18] = system: HL-60
[19] = system: HCT-116
[20] = system: OVCAR-4

Compound	GI50 [1]	GI50 [2]	GI50 [3]	GI50 [4]	GI50 [5]	GI50 [6]	GI50 [7]	GI50 [8]	GI50 [9]	GI50 [10] [µM]	GI50 [11]	GI50 [12]	GI50 [13]	GI50 [14]	GI50 [15]	GI50 [16]	GI50 [17]	GI50 [18]	GI50 [19]	GI50 [20]
Nc1cn(C2OC(CC(c3ccccc3)(c3ccccc3)c3ccccc3)C(O)C2O)c(=O)[nH]c1=O (stereo unspecified)	31.3 µM (inactive)	27 µM (inactive)	39.6 µM (inactive)	12.7 µM (inactive)	23.5 µM (inactive)	19.1 µM (inactive)	14.5 µM (inactive)	18.7 µM (inactive)	20.4 µM (inactive)	17.8	23 µM (inactive)	22.1 µM (inactive)	19.5 µM (inactive)	17.7 µM (inactive)	> 100 µM (inactive)	19.2 µM (inactive)	22.5 µM (inactive)	17.3 µM (inactive)	17.6 µM (inactive)	–
CSC1(SC)CCCCCCCCCCC1	41.7 µM (inactive)	20.4 µM (inactive)	> 100 µM (inactive)	36.8 µM (inactive)	25.5 µM (inactive)	18.7 µM (inactive)	27.8 µM (inactive)	78.5 µM (inactive)	33.7 µM (inactive)	48.1	31.6 µM (inactive)	70 µM (inactive)	58.1 µM (inactive)	32.4 µM (inactive)	34.2 µM (inactive)	16.3 µM (inactive)	47.5 µM (inactive)	46.3 µM (inactive)	17 µM (inactive)	49.4 µM (inactive)
Cc1coc2c1C(OC(=O)C(C)C)C1(C)C(C)CCC(O)C1C2=O (stereo unspecified)	> 100 µM (inactive)	> 91.4 µM (inactive)	> 100 µM (inactive)	> 100 µM (inactive)	> 100 µM (inactive)	> 100 µM (inactive)	> 100 µM (inactive)	89.5 µM (inactive)	93.1 µM (inactive)	> 100	> 100 µM (inactive)	> 100 µM (inactive)	> 100 µM (inactive)	> 100 µM (inactive)	> 100 µM (inactive)	67.1 µM (inactive)	> 100 µM (inactive)	46 µM (inactive)	> 100 µM (inactive)	> 100 µM (inactive)
C=CCc1cccc2cc(C(=O)NCc3ccccc3)c(=N)oc12	34.4 µM (inactive)	25.1 µM (inactive)	23.4 µM (inactive)	48.5 µM (inactive)	19.4 µM (inactive)	42.7 µM (inactive)	20.7 µM (inactive)	79.8 µM (inactive)	> 100 µM (inactive)	32.2	40.1 µM (inactive)	27.6 µM (inactive)	37 µM (inactive)	38.2 µM (inactive)	19.9 µM (inactive)	18.1 µM (inactive)	40.6 µM (inactive)	25.3 µM (inactive)	24.2 µM (inactive)	41.4 µM (inactive)
CC(C)[C@@H]1NC(=O)[C@@H]2N=C(O[C@H]2C)[C@H](C(C)C)NC(=O)C2N=C1O[C@H]2C	> 100 µM (inactive)	> 100 µM (inactive)	> 100 µM (inactive)	94.4 µM (inactive)	> 100 µM (inactive)	> 100 µM (inactive)	> 100 µM (inactive)	> 100 µM (inactive)	> 100 µM (inactive)	> 100	> 100 µM (inactive)	> 100 µM (inactive)	> 100 µM (inactive)	–	> 100 µM (inactive)	> 100 µM (inactive)	> 100 µM (inactive)	> 100 µM (inactive)	> 100 µM (inactive)	> 100 µM (inactive)
N#CC1C(=O)N(c2ccccc2)NC12OC(=O)c1ccncc12 (stereo unspecified)	–	> 20 µM (inactive)	> 20 µM (inactive)	> 20 µM (inactive)	> 20 µM (inactive)	> 20 µM (inactive)	> 20 µM (inactive)	> 20 µM (inactive)	> 20 µM (inactive)	> 20	> 20 µM (inactive)	> 20 µM (inactive)	> 20 µM (inactive)	> 20 µM (inactive)	> 20 µM (inactive)	> 20 µM (inactive)	> 20 µM (inactive)	> 20 µM (inactive)	> 20 µM (inactive)	> 20 µM (inactive)
C1=C(c2ccccc2)C(OC2Oc3ccccc3C=C2c2ccccc2)Oc2ccccc21 (stereo unspecified)	> 100 µM (inactive)	> 100 µM (inactive)	> 100 µM (inactive)	> 100 µM (inactive)	> 100 µM (inactive)	> 100 µM (inactive)	> 100 µM (inactive)	33.6 µM (inactive)	> 100 µM (inactive)	> 100	> 100 µM (inactive)	> 100 µM (inactive)	> 100 µM (inactive)	15.5 µM (inactive)	26.1 µM (inactive)	> 100 µM (inactive)	> 100 µM (inactive)	> 100 µM (inactive)	> 100 µM (inactive)	–

Source: ChEMBL document CHEMBL1201862, “PubChem BioAssay data set” (2004)
